These results are taken from patent publication US20120270237A9, “METHODS FOR THE IDENTIFICATION OF KINASE INTERACTING MOLECULES AND FOR THE PURIFICATION OF KINASE PROTEINS” (Cellzone AG, priority 2009, published 2012).

Molecules are shown by their SMILES.

What all share (assay): Kinobeads competition binding, L-363 cell lysate
Details in all cases: 10 μM free compound, L-363 lysate

The target of test [1] is T1, NEK3 (Homo sapiens, UniProt P51956).
T1 sequence (P51956 1-506): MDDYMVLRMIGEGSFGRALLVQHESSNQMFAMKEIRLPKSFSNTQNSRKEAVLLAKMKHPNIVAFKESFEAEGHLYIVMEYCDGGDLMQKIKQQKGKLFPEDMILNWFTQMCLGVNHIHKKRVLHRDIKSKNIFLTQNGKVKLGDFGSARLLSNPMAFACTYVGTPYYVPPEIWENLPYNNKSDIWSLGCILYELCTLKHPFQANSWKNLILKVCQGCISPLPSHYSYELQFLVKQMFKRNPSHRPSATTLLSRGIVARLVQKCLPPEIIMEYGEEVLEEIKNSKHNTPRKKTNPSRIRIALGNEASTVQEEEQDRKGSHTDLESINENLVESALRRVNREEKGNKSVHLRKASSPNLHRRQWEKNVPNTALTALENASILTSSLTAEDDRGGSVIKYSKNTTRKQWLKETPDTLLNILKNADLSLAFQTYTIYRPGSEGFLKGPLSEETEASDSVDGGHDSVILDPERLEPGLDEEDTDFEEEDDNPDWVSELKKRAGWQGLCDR
On the set-up: endogenous in cells; host or cells: L-363 (MG132-treated). The protocol:
(§1) To one aliquot of cell lysate 10 μM of the free compound (FIG. 3, CZC31326) was added and allowed to bind to proteins in the lysate. Then the affinity matrix with the immobilized compound was added to capture proteins that were not interacting with the previously added free compound. Beads were separated from the lysate and bead bound proteins were eluted in SDS sample buffer and subsequently separated by SDS-Polyacrylamide gel electrophoresis (FIG. 8). Suitable gel bands were cut out and subjected to in-gel proteolytic digestion with trypsin. The second lysate aliquot was processed identically, however no free compound was added (DMSO solvent control). Peptides originating from samples 1 and 2 were labeled with iTRAQ reagents (iTRAQ 114 and iTRAQ 117) and the combined samples were analyzed with a nano-flow liquid chromatography system coupled online to a tandem mass spectrometer (LC-MS/MS) experiment followed by iTRAQ reporter ion quantification in the MS/MS spectra as described in Example 2.
(§2) For this experiment the human plasma cell leukaemia line L-363 was used (German Collection of Microorganisms and Cell Cultures, DSMZ number ACC49, Braunschweig, Germany). Cells were treated for three hours with 20 μM of the proteasome inhibitor MG132 (Z-Leu-Leu-Leu-al, Sigma C2211) prior to cell harvesting.

Test [2] has as its target T2, NEK9 (Homo sapiens, UniProt Q8TD19).
T2 sequence (Q8TD19 1-979): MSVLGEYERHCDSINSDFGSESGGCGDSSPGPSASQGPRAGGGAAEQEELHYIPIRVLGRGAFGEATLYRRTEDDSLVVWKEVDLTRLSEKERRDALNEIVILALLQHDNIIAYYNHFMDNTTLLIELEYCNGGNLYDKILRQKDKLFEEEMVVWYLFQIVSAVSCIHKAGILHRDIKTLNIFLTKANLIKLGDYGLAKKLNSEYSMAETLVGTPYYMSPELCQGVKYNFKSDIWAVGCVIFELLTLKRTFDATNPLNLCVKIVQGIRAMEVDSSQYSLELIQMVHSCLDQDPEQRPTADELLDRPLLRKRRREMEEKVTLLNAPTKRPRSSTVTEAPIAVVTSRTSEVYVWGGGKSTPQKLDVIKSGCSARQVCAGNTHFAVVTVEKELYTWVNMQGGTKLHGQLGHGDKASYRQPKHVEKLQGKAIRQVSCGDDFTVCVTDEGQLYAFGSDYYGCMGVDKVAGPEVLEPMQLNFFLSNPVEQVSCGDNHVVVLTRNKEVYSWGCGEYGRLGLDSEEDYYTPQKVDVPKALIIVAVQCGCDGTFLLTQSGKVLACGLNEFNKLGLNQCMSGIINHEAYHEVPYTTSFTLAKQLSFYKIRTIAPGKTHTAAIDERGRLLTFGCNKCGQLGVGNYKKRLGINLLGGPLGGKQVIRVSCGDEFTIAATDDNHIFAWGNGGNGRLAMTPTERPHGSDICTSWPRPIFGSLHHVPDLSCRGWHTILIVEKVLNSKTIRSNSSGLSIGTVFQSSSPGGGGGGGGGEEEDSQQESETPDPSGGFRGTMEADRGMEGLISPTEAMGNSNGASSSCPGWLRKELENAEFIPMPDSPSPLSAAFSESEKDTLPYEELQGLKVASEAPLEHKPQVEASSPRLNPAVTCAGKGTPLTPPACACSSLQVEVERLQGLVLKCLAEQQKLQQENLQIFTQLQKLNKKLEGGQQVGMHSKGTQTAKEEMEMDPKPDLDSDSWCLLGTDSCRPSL
On the set-up: endogenous in cells; host or cells: L-363 (MG132-treated). The protocol: as §1, §2

The target of test [3] is PAK4 (Homo sapiens, UniProt O96013). The arrangement: endogenous in cells; host or cells: L-363 (MG132-treated). The protocol: as §1, §2
In test [4] the target is MAP3K1 (Homo sapiens, UniProt Q13233). On the set-up: endogenous in cells; host or cells: L-363 cells (DSMZ ACC49), treated with MG132 before harvest. The protocol:
as §1, §2

In test [5] the target is MAP3K3 (Homo sapiens, UniProt Q99759). The arrangement: endogenous in cells; host or cells: L-363 cells (DSMZ ACC49), treated with MG132 before harvest. The protocol:
as §1, §2

The target of test [6] is MAP3K4 (Homo sapiens, UniProt Q9Y6R4). The arrangement: endogenous in cells; host or cells: L-363 cells (DSMZ ACC49), treated with MG132 before harvest. The protocol: as §1, §2
Chain of MAP3K4 (Q9Y6R4 whole entry): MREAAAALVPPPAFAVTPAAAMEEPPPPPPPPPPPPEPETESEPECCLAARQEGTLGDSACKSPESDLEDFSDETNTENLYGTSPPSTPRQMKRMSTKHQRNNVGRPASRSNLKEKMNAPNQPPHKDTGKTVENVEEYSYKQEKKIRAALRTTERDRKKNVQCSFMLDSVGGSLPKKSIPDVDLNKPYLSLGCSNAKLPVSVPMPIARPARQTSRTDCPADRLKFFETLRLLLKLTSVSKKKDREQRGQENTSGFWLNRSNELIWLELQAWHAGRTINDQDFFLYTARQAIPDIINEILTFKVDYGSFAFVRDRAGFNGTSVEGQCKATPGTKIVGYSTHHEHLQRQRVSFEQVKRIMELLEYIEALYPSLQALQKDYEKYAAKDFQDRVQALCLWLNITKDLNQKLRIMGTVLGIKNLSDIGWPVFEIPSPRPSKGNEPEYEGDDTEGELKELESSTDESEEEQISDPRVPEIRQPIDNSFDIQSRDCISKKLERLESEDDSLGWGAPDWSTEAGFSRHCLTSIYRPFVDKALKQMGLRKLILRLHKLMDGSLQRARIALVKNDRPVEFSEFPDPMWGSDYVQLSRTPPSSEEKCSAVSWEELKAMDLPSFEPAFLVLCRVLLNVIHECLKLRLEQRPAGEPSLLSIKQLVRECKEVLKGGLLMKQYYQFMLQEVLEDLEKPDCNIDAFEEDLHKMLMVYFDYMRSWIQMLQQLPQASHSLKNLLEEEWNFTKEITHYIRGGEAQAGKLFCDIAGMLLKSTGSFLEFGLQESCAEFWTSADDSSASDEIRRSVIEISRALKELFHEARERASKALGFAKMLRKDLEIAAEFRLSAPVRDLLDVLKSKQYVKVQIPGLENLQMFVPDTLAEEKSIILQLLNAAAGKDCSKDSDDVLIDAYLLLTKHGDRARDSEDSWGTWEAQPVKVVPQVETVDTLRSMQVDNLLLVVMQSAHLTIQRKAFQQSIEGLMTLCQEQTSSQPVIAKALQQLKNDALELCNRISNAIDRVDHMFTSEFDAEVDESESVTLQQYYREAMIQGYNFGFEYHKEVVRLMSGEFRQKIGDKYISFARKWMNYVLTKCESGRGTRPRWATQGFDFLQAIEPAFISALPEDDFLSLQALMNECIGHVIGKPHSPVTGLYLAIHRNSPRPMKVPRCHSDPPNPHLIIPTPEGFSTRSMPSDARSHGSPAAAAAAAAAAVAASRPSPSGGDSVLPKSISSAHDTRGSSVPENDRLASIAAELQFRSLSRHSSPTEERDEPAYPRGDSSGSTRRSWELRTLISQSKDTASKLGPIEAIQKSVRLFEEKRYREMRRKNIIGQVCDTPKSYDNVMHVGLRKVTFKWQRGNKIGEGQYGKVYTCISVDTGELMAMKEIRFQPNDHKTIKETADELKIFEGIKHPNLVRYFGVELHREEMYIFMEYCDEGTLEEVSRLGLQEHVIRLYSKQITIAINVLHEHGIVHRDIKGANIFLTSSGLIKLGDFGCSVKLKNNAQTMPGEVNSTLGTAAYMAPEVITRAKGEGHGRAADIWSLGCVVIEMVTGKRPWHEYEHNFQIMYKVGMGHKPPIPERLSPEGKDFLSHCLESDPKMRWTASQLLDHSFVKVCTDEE

Chain of MAP3K3 (Q99759 whole entry): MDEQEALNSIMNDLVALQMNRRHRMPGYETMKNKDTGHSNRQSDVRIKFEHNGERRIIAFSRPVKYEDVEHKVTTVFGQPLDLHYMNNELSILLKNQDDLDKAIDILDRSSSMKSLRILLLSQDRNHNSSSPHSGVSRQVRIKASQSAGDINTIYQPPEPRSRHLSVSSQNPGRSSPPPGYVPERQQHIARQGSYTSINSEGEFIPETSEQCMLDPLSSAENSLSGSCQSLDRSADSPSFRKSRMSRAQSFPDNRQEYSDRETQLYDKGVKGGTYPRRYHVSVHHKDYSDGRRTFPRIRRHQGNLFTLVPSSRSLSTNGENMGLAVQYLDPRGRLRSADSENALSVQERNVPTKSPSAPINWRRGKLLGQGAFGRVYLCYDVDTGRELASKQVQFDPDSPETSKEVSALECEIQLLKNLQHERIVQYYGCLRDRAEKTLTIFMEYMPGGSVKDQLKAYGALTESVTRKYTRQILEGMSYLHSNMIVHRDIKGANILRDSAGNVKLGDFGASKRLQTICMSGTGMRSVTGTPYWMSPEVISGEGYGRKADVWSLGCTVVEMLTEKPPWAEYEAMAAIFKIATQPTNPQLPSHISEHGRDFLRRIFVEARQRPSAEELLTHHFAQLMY
Chain of PAK4 (O96013 whole entry): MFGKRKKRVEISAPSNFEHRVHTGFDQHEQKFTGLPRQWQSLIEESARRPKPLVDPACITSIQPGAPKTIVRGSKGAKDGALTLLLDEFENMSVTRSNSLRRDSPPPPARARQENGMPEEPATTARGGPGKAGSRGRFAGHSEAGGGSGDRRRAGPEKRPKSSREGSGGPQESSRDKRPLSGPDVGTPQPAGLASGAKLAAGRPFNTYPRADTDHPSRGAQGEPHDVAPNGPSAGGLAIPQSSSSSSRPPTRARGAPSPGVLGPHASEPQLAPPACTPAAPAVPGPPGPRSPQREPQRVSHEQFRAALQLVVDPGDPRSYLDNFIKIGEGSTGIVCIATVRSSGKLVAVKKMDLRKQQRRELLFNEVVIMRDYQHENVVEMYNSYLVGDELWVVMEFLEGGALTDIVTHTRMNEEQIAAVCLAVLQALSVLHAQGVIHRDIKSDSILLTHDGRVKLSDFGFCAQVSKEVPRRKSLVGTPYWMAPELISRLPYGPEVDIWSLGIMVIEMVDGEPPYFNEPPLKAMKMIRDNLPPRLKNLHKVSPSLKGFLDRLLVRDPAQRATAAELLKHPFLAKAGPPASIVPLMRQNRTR
Chain of MAP3K1 (Q13233 whole entry): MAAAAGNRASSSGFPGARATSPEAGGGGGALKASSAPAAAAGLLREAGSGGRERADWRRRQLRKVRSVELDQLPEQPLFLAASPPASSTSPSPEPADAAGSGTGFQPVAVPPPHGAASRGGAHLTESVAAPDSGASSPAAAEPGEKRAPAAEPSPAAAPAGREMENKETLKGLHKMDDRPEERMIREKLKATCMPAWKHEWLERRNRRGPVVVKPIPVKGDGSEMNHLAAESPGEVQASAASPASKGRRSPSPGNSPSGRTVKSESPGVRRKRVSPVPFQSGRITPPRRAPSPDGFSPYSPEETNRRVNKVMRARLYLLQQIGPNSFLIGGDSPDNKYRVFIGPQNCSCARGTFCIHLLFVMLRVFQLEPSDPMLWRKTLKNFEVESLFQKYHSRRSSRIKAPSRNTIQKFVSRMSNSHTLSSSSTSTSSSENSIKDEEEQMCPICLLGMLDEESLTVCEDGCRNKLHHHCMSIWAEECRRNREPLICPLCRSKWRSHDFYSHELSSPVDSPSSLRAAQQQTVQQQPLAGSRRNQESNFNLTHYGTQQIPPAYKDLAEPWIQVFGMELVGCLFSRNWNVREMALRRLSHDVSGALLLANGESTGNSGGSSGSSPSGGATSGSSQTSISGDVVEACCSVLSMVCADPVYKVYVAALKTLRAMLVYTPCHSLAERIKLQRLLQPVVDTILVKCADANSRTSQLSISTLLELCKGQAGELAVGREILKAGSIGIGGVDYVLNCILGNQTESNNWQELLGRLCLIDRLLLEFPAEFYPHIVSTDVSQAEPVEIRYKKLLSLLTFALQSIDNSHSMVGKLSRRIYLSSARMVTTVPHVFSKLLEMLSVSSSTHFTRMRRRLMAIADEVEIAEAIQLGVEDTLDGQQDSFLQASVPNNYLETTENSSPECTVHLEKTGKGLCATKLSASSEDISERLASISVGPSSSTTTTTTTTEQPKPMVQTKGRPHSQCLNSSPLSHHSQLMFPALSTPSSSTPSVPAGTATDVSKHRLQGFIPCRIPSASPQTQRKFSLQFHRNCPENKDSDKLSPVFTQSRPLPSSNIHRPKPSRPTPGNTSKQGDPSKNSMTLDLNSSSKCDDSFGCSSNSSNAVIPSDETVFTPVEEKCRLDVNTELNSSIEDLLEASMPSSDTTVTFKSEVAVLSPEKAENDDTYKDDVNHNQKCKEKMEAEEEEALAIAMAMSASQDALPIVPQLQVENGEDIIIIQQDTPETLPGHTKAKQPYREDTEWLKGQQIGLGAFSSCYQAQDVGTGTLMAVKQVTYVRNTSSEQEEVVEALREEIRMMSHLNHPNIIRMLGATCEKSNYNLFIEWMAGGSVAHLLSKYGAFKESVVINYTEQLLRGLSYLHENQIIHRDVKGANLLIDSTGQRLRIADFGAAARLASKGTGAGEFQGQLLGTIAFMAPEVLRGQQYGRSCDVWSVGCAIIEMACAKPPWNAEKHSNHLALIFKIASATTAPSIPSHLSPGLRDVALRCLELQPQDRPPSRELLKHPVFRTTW

A word on the inhibition: it is how much of the control response was suppressed. A low value points to a weak effect. `CS(=O)(=O)Nc1ccccc1Nc1nc(Nc2cccc(OCCN)c2)ncc1Cl` [CZC31326, N-(2-(2-(3-(2-aminoethoxy)phenylamino)-5-chloropyrimidin-4-ylamino)phenyl)methanesulfonamide]: the inhibition at 10 µM in test [1] is 96.8%; in test [2] it was 92.4%; in test [3], 97.3%; in test [4], 96.2%; in test [5] it was 97.4%; in test [6], 95.8%.
